Experiment [1] has as its target ESR1-Nanoluciferase fusion protein (Homo sapiens, UniProt P03372). Kind of experiment: ERα nanoluciferase degradation assay. The format is cell-based. As to the method: MCF7 pTRIPZ Cas9 cells stably transfected with pSMPNeo dual Luc ESR1 vector (containing ESR1-Nanoluciferase fusion protein/reporter and a Firefly luciferase reporter) were seeded into T175 flasks and incubated for 48 hours in RPMI 1640 media containing 10% (v/v) foetal bovine serum (FBS) and 2 mM L-Glutamine. The cells were then seeded at 20000 cells/well into 384-well plates containing compounds at concentrations ranging from 3.125 µM to 15.9 pM. Following 24 hours incubation (37 °C, 5% CO2), media was removed and ONE-Glow^TM EX luciferase reagent (Promega) was added to each well. Firefly luminescence was measured after 5 minutes using an Envision (PerkinElmer). NanoDLR^TM Stop and Glo® reagent (Promega) was added and incubated for ten minutes (room temperature), before measuring Nano luminescence using the Envision. Wells containing vehicle or 3 µM Fulvestrant were used to normalise data, and degradation of ESR1-Nanoluciferase was analysed using Genedata Screener.

The target of the next experiment is T1, ERα (Homo sapiens, UniProt P03372).
T1 construct: endogenous in cells; host or cells: MCF7 (also MCF7 engineered to express Cas9)
T1 sequence (P03372 1-595): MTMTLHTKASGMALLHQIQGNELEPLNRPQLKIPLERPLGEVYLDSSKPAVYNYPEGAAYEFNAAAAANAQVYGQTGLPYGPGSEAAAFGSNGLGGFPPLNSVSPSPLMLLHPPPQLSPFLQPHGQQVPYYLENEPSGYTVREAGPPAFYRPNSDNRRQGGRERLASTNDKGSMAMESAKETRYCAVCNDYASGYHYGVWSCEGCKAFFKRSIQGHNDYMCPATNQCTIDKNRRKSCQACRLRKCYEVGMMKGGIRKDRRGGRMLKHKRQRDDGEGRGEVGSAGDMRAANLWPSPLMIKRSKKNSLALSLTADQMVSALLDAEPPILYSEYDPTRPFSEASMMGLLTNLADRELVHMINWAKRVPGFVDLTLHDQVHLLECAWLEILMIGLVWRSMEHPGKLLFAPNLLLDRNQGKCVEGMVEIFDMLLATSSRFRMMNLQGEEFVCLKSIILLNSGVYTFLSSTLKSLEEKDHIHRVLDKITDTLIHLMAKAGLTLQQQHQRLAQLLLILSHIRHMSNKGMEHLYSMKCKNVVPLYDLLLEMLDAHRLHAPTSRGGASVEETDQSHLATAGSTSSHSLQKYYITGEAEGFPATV
Briefly: ERα degradation in a panel of ER+ cell lines (western blot). The format is cell-based. Conditions: 100 nM; for ERa degradation vs vehicle: 48 h, listed as AZ'6421. As to the method:
Fig. 3 AZ’6421 potently degrades ERα and inhibits ER-regulated gene transcription. a MCF7 cells were treated with increasing concentrations of AZ’6421 for 24 h and probed for ERα by immunoblot analysis. b SILAC experiment to measure ERα peptide turnover in MCF7 cells. Cells cultured in the presence of heavy L-arginine were switched at time T = 0 to media containing light L-arginine plus 0.1% DMSO, 1 µM AZ’6421, or 1 µM fulvestrant. Cells were collected at the indicated timepoints and the proportion of heavy-labelled ERα assessed by mass spectrometry. % ERα heavy peptide is plotted relative to DMSO control. Data points show the mean of 3 independent experiments with points in bold representing the mean. c A panel of ER+ cells were treated with 100 nM AZ’6421 for 48 h. ERα was normalised to vinculin and expressed as % of vehicle control. Data points represent an independent experiment for each cell line, error bars indicate ± s.e.m. d Heatmap showing changes in mRNA expression of a panel of ER-regulated genes. MCF7 and CAMA1 cells were stimulated with 0.1 nM estradiol in the presence of DMSO, 100 nM fulvestrant (Fulv), 100 nM AZD9833, or 100 nM AZ’6421 for 24 hours. Data points show 3 independent experiments. e Growth inhibition curves for MCF7 and CAMA1 cells, treated with increasing concentrations of AZ’6421 for 6 days. Data points show 4–5 independent experiments, bold points represent the mean. TEXT PRINTED IN THE PICTURE: (c) no label printed: Mean % ER Degradation, MCF-7: 96; Mean % ER Degradation, CAMA-1: 92; Mean % ER Degradation, ZR75-1: 95; Mean % ER Degradation, MDA-MB-134: 99; Mean % ER Degradation, BT474: 83; Mean % ER Degradation, HCC1428: 92; Mean % ER Degradation, T47D: 87 DOUBTS OF THE COPYIST ABOUT THIS PICTURE: Panel c prints no substance label for the Mean % ER Degradation values, so the substance is left empty.
Cells were seeded into 12-well tissue culture-treated plates at 0.5 x 10^6 cells/well in phenol red-free RPMI containing 5% (v/v) charcoal-stripped FBS (F6765, Sigma) and left to adhere overnight. In experiments to detect agonism or for SILAC experiments, FBS was double stripped using activated charcoal. […] Expression levels of proteins were determined by standard western blotting techniques (BioRad 4%-12% Bis-Tris gels). Antibodies were diluted in 5% milk-PBS-Tween and protein levels were detected using Pierce WestDura chemiluminescent reagents followed by visualisation and quantification on a Syngene ChemiGenius Imager. Where blots were quantified, protein levels were normalised to beta-actin or vinculin control and expressed as % of vehicle control.
A general note: A western blot detects proteins with antibodies after separation by electrophoresis.

Several values for one entry are separate records, joined by “and”; a condition that tells them apart may be missing. Equal values may be shown once.

The source of these data is publication PMC11091220, “Metabolism-driven in vitro/in vivo disconnect of an oral ERɑ VHL-PROTAC” (Communications Biology, 2024).

One may read the DC50 as the concentration at which degradation of the target reaches its halfway point. The term IC50 denotes the concentration that inhibits the measured activity by half. Broadly, the Dmax is the greatest extent of degradation seen.

Chain of ESR1-Nanoluciferase fusion protein (P40337 whole entry, one chain of several, the tested form may be a part): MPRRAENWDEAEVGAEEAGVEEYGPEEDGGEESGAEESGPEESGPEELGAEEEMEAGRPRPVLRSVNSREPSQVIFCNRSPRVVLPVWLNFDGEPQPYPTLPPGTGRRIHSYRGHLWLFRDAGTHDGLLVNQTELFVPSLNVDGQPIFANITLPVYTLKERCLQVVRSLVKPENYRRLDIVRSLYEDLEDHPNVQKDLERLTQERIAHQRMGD

For `Cc1ncsc1-c1ccc(CNC(=O)[C@@H]2C[C@@H](O)CN2C(=O)[C@@H](NC(=O)COCCCOCCCOc2cc(F)c([C@@H]3c4[nH]c5ccccc5c4C[C@@H](C)N3CC(C)(C)F)c(F)c2)C(C)(C)C)cc1` [Compound 5], the DC50 in experiment [1] (24 hours, read-out: ERα nano-luciferase degradation DC50) was determined as 15 ± 9 nM. The IC50 in experiment [1] (Table 1 source data, mean, read-out: ERa nanocluciferase degradation DC50 (nM), Mean IC50) was found to be 15 nM. Besides, in experiment [1] (read-out: ERα nano-luciferase Dmax), the Dmax turned out to be 121 ± 15%. Moreover, the “ERα protein abundance, % of the vehicle” value on ERα (all cell lines tested) is on record as “less than 20%”. The “ERa degradation vs vehicle” value was 4.37 and 5.82 on ERα (BT474); 9.04 and 6.44 on ERα (HCC1428); 1.1 and 1.64 on ERα (MDA-MB-134).
